{"source": "patent US20200087269A1", "about": "“PROCESS FOR THE PRODUCTION OF OZANIMOD” (EGIS GYOGYSZERGYAR ZRT., priority 2017, published 2020)", "key": {"[1]": {"test": "X-ray powder diffraction after two DVS cycles (polymorph stability to humidity)", "type": "physicochemical", "procedure": "FIG. 5: The x-ray powder diffractogram of the ozanimod base Form I form after two DVS cycles (see example 6).\nThe x-ray powder diffraction measurements were performed as follows:\nDevice: PANalytical Empyrean x-ray powder diffractometer Measurement alignment: Transmission\nType: Empyrean long fine focussing, high resolution tube\nDivergence slit: Fixed slit 1/2° Mirror: Focussing elliptical mirror Soller slit: 0.04 rad Diffusion inhibitor slit: Fixed slit 1/2°\nDiffusion inhibitor slit: Programmable slit in fixed mode: 1/2° Soller slit: 0.04 rad\nType: Reflection-transmission, with rotatable sample holders Sample rotation speed: 1 rotation/second Direct beam catcher (“beam knife”): Transmission\nType: PIXcel 3D 1×1 area detector Operation mode: Scanning line detector (ID) operation mode Active detector window size: 3.3473° Sample preparation: samples placed between two Mylar sheets, without pulverising\nTemperature: room temperature Accelerating voltage: 45 kV Anode heating current: 40 mA Scanning method: continuous (θ/θ) scanning Measurement range: 2.0000-34.9964° 2θ\nStep duration: 109.650 seconds No of measurement cycles: 1 Measurement duration: ˜20 minutes"}, "[2]": {"test": "Dynamic vapour sorption (DVS) measurement", "type": "physicochemical", "conditions": "25° C.", "procedure": "Dynamic Vapour Sorption (DVS)\nDevice: TA Q5000SA dynamic vapour sorption analyser (DVS) Atmosphere: Flowing nitrogen Carrier gas flow rate: 200 mL/min N2\nBalance house flow rate: 10 mL/min N2 Temperature maintained • 35° C. in balance house: Crucible type: Platinum 100 μl, open Measuring method: Custom\nMeasuring temperature: 25° C., isotherm Measurement range: Between 0% and 95% RH Initial relative humidity: 20% RH Measurement phases: Desorption-adsorption-desorption Step size: 5% RH Mass constant criterion: ≤0.01% for 5 minutes Maximum step length: 360 minutes Sampling frequency: 5 sec/point Number of cycles: 2\nThe dynamic vapour sorption (DVS) measurement of the ozanimod base Form I polymorph according to example 6"}}}
{"smiles": "CC(C)Oc1ccc(-c2nc(-c3cccc4c3CC[C@@H]4NCCO)no2)cc1C#N", "note": "[ozanimod base Form I polymorph, ozanimod]", "values": [{"measurement": "stability of the polymorph form / sensitivity to humidity", "setting": "[1]; 25° C.", "result": "stable at 25° C., and not sensitive to humidity"}, {"measurement": "influence of the humidity of the air on the stability of the crystals", "setting": "[1]; according to applicant's tests", "result": "does not influence the stability of the crystals"}, {"measurement": "polymorphic nature under air humidity", "setting": "[1]; according to applicant's tests", "result": "does not change"}, {"measurement": "crystal structure after the two DVS cycles (x-ray powder diffractogram, FIG. 5 vs FIG. 3)", "setting": "[1]; after two DVS cycles, 25° C., 0-95% RH", "result": "unchanged"}, {"measurement": "hygroscopicity", "setting": "[2]; DVS, 0-95% RH", "result": "slightly hygroscopic"}, {"measurement": "sorption isotherm on repeating the cycle", "setting": "[2]; second DVS cycle", "result": "did not change"}, {"measurement": "mass increase of the sample", "setting": "[2]; under 95% relative humidity, first cycle", "result": 0.6, "unit": "%"}]}
